According to patent US12214017B2, “GLP-1 compositions and uses thereof” (Novo Nordisk A/S, priority 2017, dated 2025):

Experiment: Assay (III): purity of liraglutide by HPLC (chemical stability)
Format: physicochemical
Settings: composition without phenol, compared with phenol-containing compositions
Experimental: Assay (III): Determination of Purity of Liraglutide
Determination of purity was performed using high performance liquid chromatography (HPLC) using a Waters XTerra™ MS C18 column with a gradient elution of two mobile phases, where one mobile phase was an aqueous ammonium phosphate buffer (pH 8)/acetonitrile mixture and the other mobile phase was acetonitrile in water. Detection was performed at 215 nm.
The results in Table 5 were obtained as follows: Compositions comprising liraglutide were tested. The tested compositions contained liraglutide (as specified in Table 4), mannitol (36.9 mg/ml), disodium hydrogen phosphate (1.42 mg/ml), and optionally phenol (as specified in Table 4), at pH 7.4 in an aqueous solution. These compositions were prepared as described herein in the section General Methods of Preparation. Chemical stability as expressed by purity was determined by Assay (III) described herein at start of the experiment and after storage at 25° C. or at 37° C.

Chemical stability of liraglutide (in words): less chemically stable
Structure (SMILES): CCCCCCCCCCCCCCCC(=O)N[C@@H](CCC(=O)NCCCC[C@H](NC(=O)[C@H](C)NC(=O)[C@H](C)NC(=O)[C@H](CCC(N)=O)NC(=O)CNC(=O)[C@H](CCC(=O)O)NC(=O)[C@H](CC(C)C)NC(=O)[C@H](Cc1ccc(O)cc1)NC(=O)[C@H](CO)NC(=O)[C@H](CO)NC(=O)[C@@H](NC(=O)[C@H](CC(=O)O)NC(=O)[C@H](CO)NC(=O)[C@@H](NC(=O)[C@H](Cc1ccccc1)NC(=O)[C@@H](NC(=O)CNC(=O)[C@H](CCC(=O)O)NC(=O)[C@H](C)NC(=O)[C@@H](N)Cc1cnc[nH]1)[C@@H](C)O)[C@@H](C)O)C(C)C)C(=O)N[C@@H](CCC(=O)O)C(=O)N[C@@H](Cc1ccccc1)C(=O)N[C@H](C(=O)N[C@@H](C)C(=O)N[C@@H](Cc1c[nH]c2ccccc12)C(=O)N[C@@H](CC(C)C)C(=O)N[C@H](C(=O)N[C@@H](CCCNC(=N)N)C(=O)NCC(=O)N[C@@H](CCCNC(=N)N)C(=O)NCC(=O)O)C(C)C)[C@@H](C)CC)C(=O)O [liraglutide]
